Laboratory results taken from publication PMC5829649, “The ribosomal A-site finger is crucial for binding and activation of the stringent factor RelA” (Nucleic Acids Research, 2018).

Assays:
[1] = biological target: T1, RelA (Escherichia coli, UniProt P0AG20); experiment: 3H-GTP conversion to pppGpp by purified RelA with ribosomes, TLC; type: biochemical
T1 construct: untagged native full-length RelA
T1 sequence (P0AG20 1-744): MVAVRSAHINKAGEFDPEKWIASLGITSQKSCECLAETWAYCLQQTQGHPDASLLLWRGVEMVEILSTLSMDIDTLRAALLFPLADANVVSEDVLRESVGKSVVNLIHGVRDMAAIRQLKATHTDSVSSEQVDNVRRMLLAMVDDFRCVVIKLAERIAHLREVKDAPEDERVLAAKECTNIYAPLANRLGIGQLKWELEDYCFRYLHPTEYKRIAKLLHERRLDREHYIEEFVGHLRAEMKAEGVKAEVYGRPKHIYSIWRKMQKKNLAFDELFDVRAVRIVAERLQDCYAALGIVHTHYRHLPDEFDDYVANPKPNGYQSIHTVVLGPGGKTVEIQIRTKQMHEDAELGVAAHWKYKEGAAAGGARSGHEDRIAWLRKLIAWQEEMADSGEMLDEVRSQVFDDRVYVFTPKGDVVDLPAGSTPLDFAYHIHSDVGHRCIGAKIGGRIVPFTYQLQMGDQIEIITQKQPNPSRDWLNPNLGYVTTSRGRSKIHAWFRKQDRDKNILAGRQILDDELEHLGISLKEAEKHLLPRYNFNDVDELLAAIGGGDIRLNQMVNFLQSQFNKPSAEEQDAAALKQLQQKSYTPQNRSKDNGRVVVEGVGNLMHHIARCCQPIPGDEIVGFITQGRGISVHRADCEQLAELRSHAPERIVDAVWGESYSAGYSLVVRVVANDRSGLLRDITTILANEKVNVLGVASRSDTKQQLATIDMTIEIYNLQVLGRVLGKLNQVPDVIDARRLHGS

[2] = biological target: T1, RelA; experiment: product of 3H-GDP conversion by purified RelA; added at […] it only mildly modulates activity; type: biochemical
[3] = biological target: T1, RelA; experiment: 3H-ppGpp synthesis assay (TLC) with purified RelA, pppGpp titration (activation), RelA alone or with starved ribosomal complexes; type: biochemical
[4] = biological target: T1, RelA; experiment: 3H-GDP conversion to ppGpp by purified RelA with vacant 70S or starved ribosomal complexes, TLC; type: biochemical
[5] = biological target: T2, RelA (untagged native) (Escherichia coli DH5alpha, UniProt P0AG20 1-744); experiment: EMSA; 70 nM RNA, up to 60x excess RelA; weak binding (KD above 3 uM) not excluded; HEPES:Polymix buffer, 5 mM Mg2+, pH 7.5, 37 C; settings: protein: recombinant; tags: none; hairpin
T2 sequence: T1 sequence (P0AG20 1-744)

## Nc1nc2c(ncn2[C@@H]2O[C@H](COP(=O)(O)OP(=O)(O)OP(=O)(O)O)[C@@H](O)[C@H]2O)c(=O)[nH]1 [GTP]
[1]
  3H-GTP conversion to pppGpp by purified RelA with ribosomes, TLC: 896 ± 29 pppGpp reactions per RelA per minute

## Nc1nc2c(ncn2[C@@H]2O[C@H](COP(=O)(O)OP(=O)(O)O)[C@@H](OP(=O)(O)OP(=O)(O)O)[C@H]2O)c(=O)[nH]1 [ppGpp]
[2]
  product of 3H-GDP conversion by purified RelA; added at 100 μM it only mildly mo: When GTP is used as a substrate, ppGpp acts as a weak inhibitor

## Nc1nc2c(ncn2[C@@H]2O[C@H](COP(=O)(O)OP(=O)(O)OP(=O)(O)O)[C@@H](OP(=O)(O)OP(=O)(O)O)[C@H]2O)c(=O)[nH]1 [pppGpp]
[3]
  EC50: 500 to 600 nM

## Nc1nc2c(ncn2[C@@H]2O[C@H](COP(=O)(O)OP(=O)(O)O)[C@@H](O)[C@H]2O)c(=O)[nH]1 [GDP]
[4]
  3H-GDP conversion to ppGpp by purified RelA with vacant 70S or starved ribosomal: 1077±62 ppGpp per RelA per minute

## UCGGCAAGGGGGUCAUCCCGACUUACCAACCCGA (structured_RNA) [ASF RNA oligonucleotide (23S rRNA H38, 34 nt)]
[5]
  binding result: no binding
